Source: US12564583B2, “Small molecules against cereblon to enhance effector T cell function” (H. LEE MOFFITT CANCER CENTER AND RESEARCH INSTITUTE, INC., priority 2016, dated 2026)
Non-standard residues stand in square brackets, D forms with d. Residues, ends and D or L forms follow the SMILES beside them. pGlu = O=C1CC[C@@H](C(=O)O)N1

Key:
IL-2 = IL-2 relative to DMSO; assay type: cell-based
[1] = Viability relative to DMSO; assay type: cell-based; design: concentration or dose not given beside the values
[2] = target: thalidomide binding domain (TBD) of cereblon (Homo sapiens, UniProt Q96SW2); test: Cereblon binding (DSF, FP/FI); conditions: for inhibition at 200 µM: read-out: Cereblon Binding (≥50% inhibition at 200 μM)
Procedure: Several libraries are available for screening inhibitors. Virtual analysis was formulated and then theoretical design of chemical test kit and virtual screen of test kit were carried out. Physical binding studies were also completed for the initial compounds using DSF and FP assays after they are fully tested. TEST KITs that represent the compounds identified from each of the available chemical libraries based on virtual chemical structures were also made.

MM1.S = test: Viability of sensitive cell line relative to DMSO; assay type: cell-based, human
Procedure: (§1) For proliferation studies, 1-2×10^4 cells per well were seeded in a 96-well plate and were treated with using cell-counting-8 kit (CCK8) (Dojindo, Rockville, MD) according to manufacturer's protocol.

U266 = test: Viability of sensitive cell line relative to DMSO; assay type: cell-based, human
Procedure: as §1

THP-1 = test: Viability of sensitive cell line relative to DMSO; assay type: cell-based
U-937 = test: Viability of sensitive cell line relative to DMSO; assay type: cell-based
K562 = test: Viability of sensitive cell line relative to DMSO; assay type: cell-based
HL-60 = test: Viability of sensitive cell line relative to DMSO; assay type: cell-based
[3] = Viability of sensitive cell line relative to DMSO; assay type: cell-based; design: concentration or dose not given beside the values; conditions: human, lymphocytes
human TBD wild type = target: T1, human TBD wild type (Homo sapiens, UniProt Q96SW2); test: Intrinsic tryptophan fluorescence assay (IF); assay type: binding
T1 construct: The gene coding for the human TBD (aa 317-425) was synthesized; GST (PreScission site, pGEX-6P-1) (N, cleaved yes); made in house; host or cells: E. coli Rosetta 2(DE3)pLysS
Text: Intrinsic tryptophan fluorescence assay: Binding of compounds to wild-type and mutant TBD was monitored by fluorescence spectroscopy, using an adapted previously published method (14). All chemicals used in this assay were purchased from Sigma-Aldrich unless otherwise stated. In this assay, changes in emission spectra are induced by interactions of these compounds with the three Trp residues (Trp380, Trp386 and Trp400) in the binding site (15, 16). […] A 0.5% final DMSO concentration was used in each well. […] All measurements were done in triplicate and corrected for inner filter effect to subtract for ligand-associated fluorescence, as described (17). […] Graph plotting and curve fitting to obtain apparent dissociation constant (KD) values were calculated by fitting the relative change in intrinsic fluorescence at 340 nm (1-F/F0) versus ligand concentration to a nonlinear regression with one-site binding hyperbola with GraphPad Prism Sofware (GraphPad Software, La Jolla, CA).

c-Myc mRNA = test: qRT-PCR of c-Myc in T cells; assay type: cell-based; conditions: primary mouse T cells, 72 h
Procedure: qRT-PCR: Isolated T cells from Crbn^+/+ and Crbn^−/− mice were lysed, homogenized (Qiashredder, Qiagen), and total RNA extracted (RNeasy, Qiagen) according to manufacturer protocol. Complementary DNA was generated from isolated RNA (iScript cDNA synthesis Kit, Bio-Rad). RNA expression was analyzed by quantitative real time-polymerase chain reaction (qRT-PCR) using Taqman Universal PCR Master Mix for Taqman probes (Thermo Fischer Scientific) against (cDNA) c-Myc (Mm00487804_m1) and (cDNA) β2M (Mm00437762_m1). Samples were run on an Applied Biosystems 7900 HT and Sequence Detection Systems software.

mouse T cells [4] = test: Flow cytometry of activated T cells (CD98, viability, division); assay type: cell-based
[5] = system: BRD4 protein and c-Myc expression; test: Western blot of BRD4 and c-Myc; assay type: cell-based, human and mouse
[6] = system: Human multiple myeloma cell lines U266, H929, MM1.S, and OPM2; test: Growth suppression of multiple myeloma cells; assay type: cell-based; conditions: for IC50: Homo sapiens, Multiple myeloma cell, read-out: IC50 doses
Procedure: as §1

human T cells [7] = test: IL-2 production by stimulated T cells; assay type: cell-based; conditions: anti-CD3 stimulated, relative to DMSO
mouse T cells [8] = test: IL-2 production by stimulated T cells; assay type: cell-based; conditions: 10 μM, ± anti-CD28
human T cells [9] = test: Viability and proliferation of activated T cells; assay type: cell-based

thalidomide binding domain (TBD) of cereblon, sequence (Q96SW2 318-426 limits assumed): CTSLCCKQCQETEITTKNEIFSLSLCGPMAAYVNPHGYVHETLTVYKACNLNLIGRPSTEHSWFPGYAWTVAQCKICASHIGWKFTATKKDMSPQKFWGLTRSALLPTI
T1 sequence (Q96SW2 317-425): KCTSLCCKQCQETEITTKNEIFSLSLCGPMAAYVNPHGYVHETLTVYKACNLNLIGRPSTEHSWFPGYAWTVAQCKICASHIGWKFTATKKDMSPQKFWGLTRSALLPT

## O=C1CC(N2C(=O)c3ccccc3C2=O)C(=O)N1 (stereo not shown)
IL-2
  IL-2 (%) (Relative to DMSO): 10.9%
[1]
  viability: 75.3%
[2]
  Cereblon Binding (≥50% inhibition at 200 μM): No

## O=C1C[C@H](N2C(=O)c3ccccc3C2=O)C(=O)N1
IL-2
  IL-2 (%) (Relative to DMSO): 44.4%
[1]
  viability: 85.6%
[2]
  Cereblon Binding (≥50% inhibition at 200 μM): No

## Nc1ccccc1S(=O)(=O)NCCn1ccc(=O)[nH]c1=O
IL-2
  IL-2 (%) (Relative to DMSO): 31.8%
[1]
  viability: 74.6%
[2]
  Cereblon Binding (≥50% inhibition at 200 μM): No

## O=C1CCC(NCCc2ccccn2)C(=O)N1 (stereo not shown)
[2]
  inhibition at 200 µM: > 50%
MM1.S
  Viability (%) (Relative to DMSO): 29.9%
U266
  Viability (%) (Relative to DMSO): 27.0%
THP-1
  Viability (%) (Relative to DMSO): 98.8%
U-937
  Viability (%) (Relative to DMSO): 58.4%
K562
  Viability (%) (Relative to DMSO): 80.0%
HL-60
  Viability (%) (Relative to DMSO): 81.8%
[3]
  viability: 91.1%

## CN(Cc1ccccc1)C1CC(=O)NC1=O (stereo not shown)
[2]
  Cereblon Binding (≥50% inhibition at 200 μM): No
MM1.S
  Viability (%) (Relative to DMSO): 1.1%
U266
  Viability (%) (Relative to DMSO): 0%
THP-1
  Viability (%) (Relative to DMSO): 32.6%
U-937
  Viability (%) (Relative to DMSO): 98.5%
K562
  Viability (%) (Relative to DMSO): 116.7%
HL-60
  Viability (%) (Relative to DMSO): 10.15%
[3]
  viability: 96.8%

## Cn1c(=O)ccn(CCCCc2ccccc2)c1=O
[2]
  Cereblon Binding (≥50% inhibition at 200 μM): No
MM1.S
  Viability (%) (Relative to DMSO): 43.0%
U266
  Viability (%) (Relative to DMSO): 32.7%
THP-1
  Viability (%) (Relative to DMSO): 32.8%
U-937
  Viability (%) (Relative to DMSO): 50.5%
K562
  Viability (%) (Relative to DMSO): 17.7%
HL-60
  Viability (%) (Relative to DMSO): 39.3%
[3]
  viability: 94.2%

## CNc1ccccc1C(=O)NCCNC1CC(=O)NC1=O (stereo not shown)
[2]
  Cereblon Binding (≥50% inhibition at 200 μM): No
MM1.S
  Viability (%) (Relative to DMSO): 53.6%
U266
  Viability (%) (Relative to DMSO): 0.1%
THP-1
  Viability (%) (Relative to DMSO): 41.1%
U-937
  Viability (%) (Relative to DMSO): 6.3%
K562
  Viability (%) (Relative to DMSO): 21.1%
HL-60
  Viability (%) (Relative to DMSO): 12.0%
[3]
  viability: 92.6%

## COC(=O)[C@H](C)NC(=O)[C@@H]1CCC(=O)N1 ([pGlu]-Ala-OMe)
IL-2
  IL-2 (%) (Relative to DMSO): 11.7%
[1]
  viability: 101%
[2]
  Cereblon Binding (≥50% inhibition at 200 μM): No

## CC(C)C[C@H](NC(=O)[C@@H]1CCC(=O)N1)C(N)=O ([pGlu]-Leu-NH2)
IL-2
  IL-2 (%) (Relative to DMSO): 24.6%
[1]
  viability: 110%
[2]
  Cereblon Binding (≥50% inhibition at 200 μM): No

## Cc1sc2c(c1C)C(c1ccc(Cl)cc1)=N[C@@H](CC(=O)OC(C)(C)C)c1nnc(C)n1-2 [JQ1]
Human TBD wild type
  binding affinity for CRBN-TBD: does not bind
c-Myc mRNA
  c-Myc mRNA: Suppression
Mouse T cells [4]
  proliferation: compromised
  surface expression of CD98: reduction
  viability: compromised
[5]; activated mouse T cells, not dependent on CRBN
  BRD4 protein level: slight reduction in protein expression

## Nc1cccc2c1CN(C1CCC(=O)NC1=O)C2=O (stereo not shown) [Lenalidomide, lenalidomide]
[6]
  IC50: 7 to 16 µM
Human T cells [7]
  levels of IL2 mRNA and protein: significantly increased
Mouse T cells [8]
  lenalidomide-induced increase in IL-2: only human T cells displayed the expected lenalidomide-induced increase in IL-2

## Nc1cccc2c1C(=O)N(C1CCC(=O)NC1=O)C2=O (stereo not shown) [Pomalidomide, pomalidomide]
[6]
  IC50: 0.05 to 0.61 µM
Human T cells [9]
  proliferation: increase proliferation
Human T cells [9]; 72 h
  relative viability: no effect on viability

## O=C1CCC(N2C(=O)c3ccccc3C2=O)C(=O)N1 (stereo not shown) [Thalidomide, thalidomide]
[6]; doses up to 200 μM
  growth suppression: no suppressive function

## Cc1sc2c(c1C)C(c1ccc(Cl)cc1)=N[C@@H](CC(=O)NCCCCNC(=O)COc1cccc3c1C(=O)N(C1CCC(=O)NC1=O)C3=O)c1nnc(C)n1-2 (stereo partly shown) [dBET1]
Mouse T cells [4]
  surface expression of CD98: reduces the percentage of cells expressing the c-Myc target CD98
  viability: suppresses viability
[5]; human T cells, mouse T cells, MM1.S, 5TGM1
  BRD4 protein and c-Myc expression: dramatically suppressed

## Nc1cccc2c1C(=O)N(C1CCC(=O)NC1=O)C2=O (stereo not shown) [drawing 76]
IL-2
  IL-2 (%) (Relative to DMSO): 208.6%
[1]
  viability: 96.3%
[2]
  inhibition at 200 µM: > 50%

## Nc1cccc2c1CN(C1CCC(=O)NC1=O)C2=O (stereo not shown) [drawing 123]
[3]
  viability: 99.9%
